Test results taken from the NIST ThermoML archive (doi:10.1016/j.fluid.2016.09.021).
Numbers after ± are expanded uncertainties.

Settings: Liquid, Vibrating tube method

Cc1ccccc1 [toluene]
mass density [kg/m3]
Settings | 293 K | 313 K | 333 K | 353 K | 373 K | 393 K | 413 K | 433 K | 448 K | 468 K
2000 kPa | 871.2 ± 2 | 852.2 ± 2 | 833 ± 2 | 814.2 ± 2.1 | 794.2 ± 2.1 | 774.2 ± 2.1 | 753.1 ± 2.2 | 731.6 ± 2.2 | 714.3 ± 2.3 | 689.9 ± 2.3
3000 kPa | 871.9 ± 2 | 853 ± 2 | 834 ± 2 | 815.2 ± 2 | 795.4 ± 2.1 | 775.7 ± 2.1 | 754.9 ± 2.1 | 733.6 ± 2.2 | 716.6 ± 2.2 | 692.7 ± 2.3
4000 kPa | 872.6 ± 2 | 853.9 ± 2 | 834.9 ± 2 | 816.3 ± 2.1 | 796.6 ± 2.1 | 777.2 ± 2.1 | 756.5 ± 2.1 | 735.6 ± 2.2 | 718.9 ± 2.2 | 695.5 ± 2.3
5000 kPa | 873.2 ± 2 | 854.6 ± 2 | 835.8 ± 2 | 817.3 ± 2 | 797.8 ± 2.1 | 778.5 ± 2 | 758.3 ± 2.1 | 737.5 ± 2.1 | 721.1 ± 2.2 | 698.2 ± 2.3
10000 kPa | 876.8 ± 2 | 858.6 ± 2 | 840.2 ± 2 | 822.4 ± 2 | 803.8 ± 2.1 | 785.1 ± 2.1 | 766.1 ± 2.1 | 746.9 ± 2.1 | 731.4 ± 2.1 | 710.6 ± 2.2
20000 kPa | 883.4 ± 2 | 866.1 ± 2 | 848.2 ± 2 | 831.5 ± 2 | 814 ± 2.1 | 797 ± 2.1 | 779.5 ± 2.1 | 762.1 ± 2.1 | 748.5 ± 2.1 | 730.4 ± 2.1
30000 kPa | 889.3 ± 2 | 872.9 ± 2 | 855.9 ± 2 | 840.1 ± 2 | 823.5 ± 2.1 | 807.5 ± 2.1 | 791.3 ± 2.1 | 774.9 ± 2.1 | 762.6 ± 2.1 | 745.9 ± 2.1
40000 kPa | 895.1 ± 2 | 879 ± 2 | 863 ± 2 | 847.6 ± 2 | 832 ± 2.1 | 816.9 ± 2.1 | 801.6 ± 2.1 | 786.5 ± 2.1 | 774.7 ± 2.1 | 759.3 ± 2.1
50000 kPa | 900.5 ± 2 | 884.8 ± 2 | 869.2 ± 2 | 854.7 ± 2 | 840.2 ± 2.1 | 825.2 ± 2.1 | 810.8 ± 2.1 | 796.7 ± 2.1 | 785.5 ± 2.1 | 771.1 ± 2.1
60000 kPa | 905.8 ± 2 | 890.4 ± 2 | 875.6 ± 2 | 861.5 ± 2.1 | 847.2 ± 2.1 | 833.3 ± 2.1 | 819.2 ± 2.1 | 805.8 ± 2.1 | 795.1 ± 2.1 | 781.7 ± 2.1
70000 kPa | 910.8 ± 2 | 896 ± 2 | 881.5 ± 2 | 867.7 ± 2.1 | 853.9 ± 2.1 | 840.6 ± 2.1 | 827.3 ± 2.1 | 814.3 ± 2.1 | 804.1 ± 2.1 | 790.9 ± 2.1
80000 kPa | 915.8 ± 2 | 901.2 ± 2 | 887.1 ± 2.1 | 873.8 ± 2.1 | 860.3 ± 2.1 | 847.3 ± 2.1 | 834.6 ± 2.1 | 822 ± 2.1 | 812.3 ± 2.1 | 799.8 ± 2.1
90000 kPa | 920.4 ± 2 | 906.3 ± 2 | 892.3 ± 2.1 | 879.6 ± 2.1 | 866.6 ± 2.1 | 854 ± 2.1 | 841.3 ± 2.1 | 829.2 ± 2.1 | 820 ± 2.1 | 808 ± 2.2
100000 kPa | 924.8 ± 2 | 911 ± 2 | 897.6 ± 2.1 | 884.9 ± 2.1 | 872.2 ± 2.1 | 860.1 ± 2.1 | 848 ± 2.1 | 836 ± 2.1 | 827.2 ± 2.1 | 815.5 ± 2.2
110000 kPa | 929.4 ± 2 | 915.7 ± 2 | 902.5 ± 2.1 | 890.3 ± 2.1 | 877.8 ± 2.1 | 866 ± 2.1 | 854.2 ± 2.1 | 842.6 ± 2.1 | 833.9 ± 2.2 | 822.8 ± 2.2
120000 kPa | 933.6 ± 2 | 920.3 ± 2 | 907.3 ± 2.1 | 895.4 ± 2.1 | 883.3 ± 2.1 | 871.6 ± 2.1 | 860.2 ± 2.1 | 848.7 ± 2.1 | 840.2 ± 2.2 | 829.5 ± 2.2
130000 kPa | 938 ± 2 | 924.8 ± 2 | 912 ± 2.1 | 900.3 ± 2.1 | 888.5 ± 2.1 | 877.2 ± 2.1 | 865.8 ± 2.1 | 854.9 ± 2.2 | 846.6 ± 2.2 | 836 ± 2.2
135000 kPa | 939.9 ± 2 | 927 ± 2 | 914.2 ± 2.1 | 902.6 ± 2.1 | 890.8 ± 2.1 | 879.8 ± 2.1 | 868.5 ± 2.1 | 857.7 ± 2.2 | 849.6 ± 2.2 | 838.9 ± 2.2
137500 kPa | 940.9 ± 2 | 927.9 ± 2 | 915.4 ± 2.1 | 903.7 ± 2.1 | 892 ± 2.1 | 881 ± 2.1 | 869.7 ± 2.1 | 859 ± 2.2 | 850.9 ± 2.2 | 840.4 ± 2.2
